This is an account of results in US10555930B2, “Complex of a glucopyranosyl derivative and preparation method and use thereof” (SUNSHINE LAKE PHARMA CO., LTD., priority 2015, dated 2020).

A short description of data set [1]: Measurement of solubility (Chinese Pharmacopoeia 2010 method). The data set is classed as physicochemical. The text has this: Judgement standard of solubility are shown as table A.
A short description of data set [2]: Measurement of hygroscopicity (Chinese Pharmacopoeia 2010, part II, appendix XIXJ). Particulars: 25° C.±1° C., constant humidity (ammonium chloride or ammonium sulfate saturated solution), 24 h. The data set is classed as physicochemical. The protocol:
Test method: According to the method regulated by Chinese pharmacopoeia 2010, part II, appendix XIXJ, a dry glass weighing bottle with a stopper (outside diameter is 50 mm, high is 15 mm) was placed in a thermostatic drier (an ammonium chloride or ammonium sulfate saturated solution was placed in the bottom) at 25° C.±1° C. before one day of experiment, the empty glass weighing bottle with a stopper was weighed accurately by using METTLERTOLEDO XP205DR analytical balance, and recorded as m1. An appropriate amount of the Complex (IA) sample (prepared from example 2) was tiled on the above weighing bottle at a thickness of 1 mm, which was weighed accurately and recorded as m2. Opening the bottle, the bottle was placed under the above constant temperature and humidity condition for 24 h […]. Closing the bottle with the stopper, the bottle was weighed accurately, and recorded as m3, the weight gain percentage (%) was calculated.
The judgement of the results hygroscopicity was shown as table C.

Data set [3] can be described thus: Pharmacokinetic evaluation in beagles after intravenous injection and oral administration. The note with it: 0.1 mg/kg. In kind it is in vivo. The protocol:
The test sample (Complex (IA) prepared from example 2 of the invention) was dissolved in normal saline (100%) to get a solution at a concentration of 0.04 mg/mL, which was administered by i.v; the same test sample was suspended in 0.5% HPMC to get a suspension at a concentration of 0.02 mg/mL, 0.10 mg/mL, 0.50 mg/mL, 2.00 mg/mL, which was administered by gavage. The beagles were grouped randomly, each dosage group had 6 beagles, half male and half female, which were fasted for 12 h before administered, free drank. After administration of 4 h, beagles uniform ate. The single oral administration group was grouped to 4 dosage groups, which were administered the test sample suspension by gavage respectively, the dosage respectively was 0.1, 0.5, 2.5 and 10 mg/kg, and the volume of the suspension was 5 mL/kg. The blood samples were collected before administration of 0 h, and after administration of 0.25, 0.5, 1.0, 2.0, 4.0, 6.0, 8.0, 10, 12 and 48 h from lateral small saphenous vein or medial head vein of forelimb, which were placed into EDTA-K2 anticoagulative tubes. The i.v group had one dosage group, the test sample solution was administered by i.v at a dosage of 0.1 mg/kg, and the volume of the solution was 2.5 mL/kg. The blood samples were collected before administration of 0 h, and after administration of 5 min, 15 min, 0.5, 1.0, 2.0, 4.0, 6.0, 8.0, 10, 12 and 48 h from lateral small saphenous vein or medial head vein of forelimb, which were placed into EDTA-K2 anticoagulative tubes. The blood samples were centrifuged for 2 min at 11000 rpm, the plasma samples were isolated and stored at −70° C.±10° C.
The concentration of the test sample in plasma was analyzed by the LC-MS/MS method, the pharmacokinetic parameters were calculaged by the […] model method using WinNonlin 6.3 software, and drug-time curve was plotted.
The LC/MS/MS system comprised Agilent 1200 series vacuum […], binary pumps, well-plate autosampler, thermostatted column compartment, the API 4000 QTRAP Triple Quadrupole Mass Spectrometer with an electrosprayionization (ESI) source. Quantitative analysis was carried out using MRM mode.
A Waters Xbridge-C18, 2.1×30 mm, […] column was used for the analysis, 5 μL of the sample was injected. Analysis condition: The mobile phase was […] ammonium formate+0.1% formic acid in water (A) and 2 mM ammonium formate+0.1% formic acidin methanol (B). The flow rate was 0.4 mL/min And the gradient of Mobile phase was in the Table E.

Setting [4] is: solvent DMA, sampling weight 100.02, solvent volume 0.095 mL.
Where [5] appears, read: solvent DMSO, sampling weight 100.16, solvent volume 0.095 mL.
The mark [6] stands for this setting: solvent acetonitrile, sampling weight 100.20, solvent volume 2.90 mL.
Setting [7] is: solvent ethanol, sampling weight 100.10, solvent volume 2.90 mL.
Setting [8] is: solvent methanol, sampling weight 100.23, solvent volume 0.095 mL.
Where [9] appears, read: both sexes, beagle, dog, plasma, iv, i.v.
Setting [10] is: both sexes, beagle, dog, plasma, po, p.o.

For the compound `CCOc1ccc(Cc2cc([C@]34OC[C@]([C@@H](C)O)(O3)[C@@H](O)[C@H](O)[C@H]4O)ccc2Cl)cc1` [Complex (IA), Complex (IA) of (1R,2S,3S,4R,5S)-5-(4-chloro-3-(4-ethoxybenzyl)phenyl)-1-((1R)-1-hydroxyethyl)-6,8-dioxabicyclo[3.2.1]octane-2,3,4-triol (I-n) and L-pyroglutamic acid], the “solubility (summary in words)” value in data set [1] (in acetonitrile, methanol, ethanol, DMSO and DMA) was “good solubility”. The solubility results in data set [1] (setting [4]) is “Very soluble (1 g (mL) of solute can be dissolved completely in a <1 mL of solvent)”; in data set [1] (setting [5]), “Very soluble (1 g (mL) of solute can be dissolved completely in a <1 mL of solvent)”; in data set [1] (setting [6]), “Soluble (1 g (mL) of solute can be dissolved completely in a 10 to <30 mL of solvent)”; in data set [1] (setting [7]), “Soluble (1 g (mL) of solute can be dissolved completely in a 10 to <30 mL of solvent)”; in data set [1] (setting [8]) it was “Very soluble (1 g (mL) of solute can be dissolved completely in a <1 mL of solvent)”. Besides, the yes/no dissolved result was “yes” in data set [1] (setting [4]); “yes” in data set [1] (setting [5]); “yes” in data set [1] (setting [6]); “yes” in data set [1] (setting [7]); “yes” in data set [1] (setting [8]); “no” in data set [1] (solvent water, sampling weight 10.33, solvent volume 102 mL). This compound also yielded a weight gain percentage in data set [2] of 0.27%. Further, the AUC(0-t) – broadly, exposure summed from dosing to a finite time, without extrapolation to infinity – in data set [3] (setting [9]) amounted to 617 ng·h/mL; in data set [3] (setting [10]), 602 ng·h/mL. For the same compound, the figures for the Cmax in data set [3] (setting [9]) and in data set [3] (setting [10]) were 148 ng/mL and 66.2 ng/mL, respectively. Also, the half-life (commonly the time in which the quantity being followed falls by half) was 8.97 h in data set [3] (setting [9]) and 8.88 h in data set [3] (both sexes, beagle, dog, plasma, oral, p.o). For the same compound, the bioavailability (usually the share of a dose that reaches the circulation, judged against a reference dose that is usually intravenous) in data set [3] (both sexes, beagle, dog, plasma, po, p.o, read-out: F (oral bioavailability)) was determined as 97.5%. For the same compound, the “F (oral bioavailability)” value in data set [3] (p.o) turned out to be 97.57%.
